According to patent publication US20240277641A1, “METHODS FOR TREATING NERVOUS SYSTEM DISORDERS WITH […] AGENTS” (PAXMEDICA, INC., priority 2021, published 2024):
Like-named read-outs stand apart in the source and are kept apart here.

Columns and labels:
[1] = system: mouse model of epilepsy; settings: cited from earlier work
[2] = Suramin plasma pharmacokinetics in three-arm, randomized, double blind, placebo-controlled trial, intravenous infusion; assay type: in vivo, human; settings: for Plasma Concentration / AUCInterval / AUCinterval/Dose / Cmax/Dose / Cmin / AUCOverall / AUCVisit 4 / AUCVisit 5 / AUCVisit 7 / Cmin, Visit 5 / Cmin, Visit 7 / Cmin. overall / Cmax / concentration at 28 day: mean; for half-life / Cmax / concentration at 28 day: male, human, plasma; for half-life: intravenous; for concentration at 28 day: read-out: Cmin, Visit 4
Text: The following Table 2 outlines the visit schedule:
A non-compartmental pharmacokinetic (PK) approach consistent with the intravenous route of administration was used to estimate PK parameters in Watson LIMS software (version 7.5). […] All concentration values were in μg/mL, and all time points were in days as provided by the bioanalytical testing facility. Nominal dose concentrations and sampling times were used. The area under the plasma concentration-time curve (AUC) estimations were calculated on profiles having at least a quantifiable post-dose and pre-dose prior to the next dosing occasion. The observed maximum plasma concentration (Cmax) and time of Cmax (Tmax) were determined directly from the data.
Pharmacokinetic parameters were estimated using a non-compartmental approach consistent with intravenous infusion route of administration.
For area under the curve (AUC) estimation, measured plasma concentration for post dose and pre dose before the next dosing event were needed. For this study, samples for pharmacokinetic analysis were collected on days 1, 28, 56, and 96.
Whenever possible, standard deviation and coefficient of variation were determined by Watson LIMS software. For analyses that were not supported by Watson (i.e. custom comparisons), Excel was used and the statistics reported as determined by excel algorithms. Note that in either case, when the number of data points was less than three, standard deviation and coefficient of variation could not be calculated.
The route of administration was intravenous infusion over a 30 minute period on visits 2, 4, and 5.

[3] = system: male children with Autism Spectrum Disorder (ASD); assay: Efficacy by Aberrant Behavior Checklist (ABC) versus suramin blood levels in the ASD trial; assay type: in vivo, human; settings: 10 or 20 mg/kg IV
Experimental: (§1) This is the first time that multiple doses were studied in patients with neurodevelopmental disorders, and where they were observed over a long term duration. Previously, only a single 20 mg/kg dose had been described in an ASD study. See, R. K. Naviaux, “Antipurinergic therapy for autism—An in-depth review”, Mitochondrion 43, pp. 1-15 (2018), available online Dec. 16, 2017.
Each study participant attended a total of 7 visits, screening period (Visit 1.14 days), Randomization visit (Visit 2 day 1), treatment follow up visits (visit 3; day 14), treatment visit (visit 4; Day 28), treatment visit (visit 5; Day 56), End of treatment visit (visit 6; Day 77) and EOS (visit 7; day 98). Window period for screening until visit 2 will be ±14 days (thus the study procedures can be performed over 14 days) and for visit 2 onwards will be ±2 days (thus the procedures can be performed over 5 days) (Visit 2 to 7).

[4] = system: male children with Autism Spectrum Disorder (ASD); assay: Adverse effects in the ASD trial; assay type: in vivo, human
Experimental: as §1
Since only predose, 1 hour post dose, and before the next dose administration samples were collected, it was not possible to determine the exact distribution and elimination curves and therefore extrapolated parameters such as AUC0-∞ and T1/2 were not determinable.

[5] = cited from earlier work
[6] = 10 mg/kg to 20 mg/kg dose range
[7] = Table 3A, 10 mg dose group, IV, children
[8] = Table 3C, 20 mg dose group, IV, children
[9] = Table 7, 10 mg/kg Dose, n = 13, IV
[10] = Table 7, 20 mg/kg Dose, n = 14, IV

SMILES: O=C(NCC1(N2CCN(c3ccccc3)CC2)CCOCC1)c1cccnc1Sc1ccccc1 [JNJ-47965567, 2-(Phenylthio)-N-[[tetrahydro-4-(4-phenyl-1-piperazinyl)-2H-pyran-4-yl]methyl]-3-pyridinecarboxamide]
- epileptic seizures [1]: suppress epileptic seizures

SMILES: Cc1ccc(C(=O)Nc2ccc(S(=O)(=O)O)c3cc(S(=O)(=O)O)cc(S(=O)(=O)O)c23)cc1NC(=O)c1cccc(NC(=O)Nc2cccc(C(=O)Nc3cc(C(=O)Nc4ccc(S(=O)(=O)O)c5cc(S(=O)(=O)O)cc(S(=O)(=O)O)c45)ccc3C)c2)c1 [suramin, 1,3,5-Naphthalenetrisulfonic acid, 8,8′-[carbonylbis[imino-3,1-phenylenecarbonylimino(4-methyl-3,1-phenylene)carbonylimino]]bis-]
- Plasma Concentration ([2]; 10 mg/kg IV, visit 2, day 1, 1 h post-infusion): 229000 ng/mL
- Plasma Concentration ([2]; 10 mg/kg IV, visit 4, day 28, 1 h post-infusion): 157000 ng/mL
- Plasma Concentration ([2]; 10 mg/kg IV, visit 4, day 28, pre-dose): 4310 ng/mL
- Plasma Concentration ([2]; 10 mg/kg IV, visit 5, day 56, 1 h post-infusion): 164000 ng/mL
- Plasma Concentration ([2]; 10 mg/kg IV, visit 5, day 56, pre-dose): 7960 ng/mL
- Plasma Concentration ([2]; 10 mg/kg IV, visit 7, day 96, EOS): 7870 ng/mL
- Dose proportionality of AUC0-96 [2, 6]: nearly dose proportional
- Dose proportionality of Cmax [2, 6]: less than dose proportional
- Plasma Concentration ([2]; 20 mg/kg IV, visit 2, day 1, 1 h post-infusion): 328000 ng/mL
- Plasma Concentration ([2]; 20 mg/kg IV, visit 4, day 28, 1 h post-infusion): 327000 ng/mL
- Plasma Concentration ([2]; 20 mg/kg IV, visit 4, day 28, pre-dose): 11000 ng/mL
- Plasma Concentration ([2]; 20 mg/kg IV, visit 5, day 56, 1 h post-infusion): 332000 ng/mL
- Plasma Concentration ([2]; 20 mg/kg IV, visit 5, day 56, pre-dose): 21100 ng/mL
- Plasma Concentration ([2]; 20 mg/kg IV, visit 7, day 96, EOS): 23400 ng/mL
- AUCInterval [2, 7]: 4780 µg·days/mL
- AUCinterval/Dose [2, 7]: 478 µg·days/mL/mg
- Cmax/Dose [2, 7]: 24.4 µg/mL/mg
- Cmin [2, 7]: 4300 ng/mL
- AUCInterval [2, 8]: 9510 µg·days/mL
- AUCinterval/Dose [2, 8]: 475 µg·days/mL/mg
- Cmax/Dose [2, 8]: 18.3 µg/mL/mg
- Cmin [2, 8]: 10600 ng/mL
- AUCOverall [2, 9]: 4600.0 µg·days/mL
- AUCVisit 4 [2, 9]: 1195.6 µg·days/mL
- AUCVisit 5 [2, 9]: 1386.7 µg·days/mL
- AUCVisit 7 [2, 9]: 2017.7 µg·days/mL
- AUCinterval/Dose [2, 9]: 460.0 µg·days/mL/mg
- Cmax/Dose [2, 9]: 18.1 µg/mL/mg
- Cmin, Visit 5 [2, 9]: 7700 ng/mL
- Cmin, Visit 7 [2, 9]: 7700 ng/mL
- Cmin. overall [2, 9]: 4400 ng/mL
- AUCOverall [2, 10]: 10203.6 µg·days/mL
- AUCVisit 4 [2, 10]: 2431.4 µg·days/mL
- AUCVisit 5 [2, 10]: 3121.4 µg·days/mL
- AUCVisit 7 [2, 10]: 4650.7 µg·days/mL
- AUCinterval/Dose [2, 10]: 510.1 µg·days/mL/mg
- Cmax/Dose [2, 10]: 18.0 µg/mL/mg
- Cmin, Visit 5 [2, 10]: 21900 ng/mL
- Cmin, Visit 7 [2, 10]: 24200 ng/mL
- Cmin. overall [2, 10]: 10600 ng/mL
- half-life ([2]; 10 mg low dose level, inferred from lack of accumulation): < 28 days
- half-life ([2]; 20 mg high dose level, inferred from accumulation): > 28 days
- Cmax ([2]; Table 3A, 10 mg dose group, IV, children, read-out: Cmax): 244000 ng/mL
- Cmax ([2]; Table 3C, 20 mg dose group, IV, children, read-out: Cmax): 365000 ng/mL
- Cmax ([2]; Table 7, 10 mg/kg Dose, n = 13, IV, read-out: Cmax, Oveall): 181000 ng/mL
- concentration at 28 day [2, 9]: 4400 ng/mL
- Cmax ([2]; Table 7, 20 mg/kg Dose, n = 14, IV, read-out: Cmax, Oveall): 359000 ng/mL
- concentration at 28 day [2, 10]: 10900 ng/mL
- change in ABC scores from baseline versus exposure [3]: A greater change in ABC scores from baseline was observed with lower exposures
- correlation between blood levels and efficacy (ABC) ([3]; multiple doses): dynamic nonlinear correlation between antipurinergic blood levels and efficacy
- adverse effects such as visible rash or vomiting ([4]; 10 mg/kg dose group): only one event
- adverse effects such as visible rash or vomiting ([4]; 20 mg/kg dose group): occurred mostly in the 20 mg/kg dose group
- half-life, average ([5]; average): 50 days
- oral bioavailability ([5]; in vivo, po): poor oral bioavailability
